Data: US5574010A, “Treatment of pancreatic tumors with peptide YY and analogs thereof” (The Regents of The University of California, priority 1994, dated 1996)

Columns and labels:
[1] = tested on: human Mia PaCa-2 cells; assay: In vivo growth inhibition of orthotopically transplanted pancreatic ductal adenocarcinoma; conditions: male athymic mice, orthotopic Mia PaCa-2; 200 pmol/kg/hr via mini-osmotic pumps for four weeks; vs saline control
Experimental: The human pancreatic ductal adenocarcinoma Mia Paca-2 was examined for in vivo growth inhibition by peptide YY and Analog #1. Seventy thousand to 100,000 human Mia PaCa-2 cells were orthotopically transplanted into 48 male athymic mice. After one week, the animals were treated with either PYY or Analog #1 at 200 pmol/kg/hr via mini-osmotic pumps for four weeks. The paired cultures received saline. At sacrifice, both tumor size and mass were measured. Control mice had significant human cancer growth within the pancreas as evidenced by histologic sections. At 9 weeks, ninety percent (90%) of control mice had substantial metastatic disease.

[2] = tested on: MiaPaCa-2; assay: MTT viability assay, in vitro anti-proliferative activity; type: cell-based, human; conditions: Mia PaCa-2, 36 hours, vs saline control
Experimental: (§1) PANC-1 and MiaPaCa-2 are two human pancreatic adenocarcinomas cancer cell lines which are available commercially from suppliers such as American Type Culture Collection, ATCC (Rockville, Md.). For this example, the two tumor cells were grown in RPMI-1640 culture media supplemented with 10% fetal bovine serum, 29.2 mg/L of glutamine, 25 μg gentamicin, 5 ml penicillin, streptomycin, and fungizone solution (JRH Biosciences, Lenexa, Kans.) at 37° Celsius in a NAPCO water jacketed 5 % CO2 incubator. All cell lines were detached with 0.25 % trypsin (Clonetics, San Diego, Calif.) once to twice a week when a confluent monolayer of tumor cells was achieved. Cells were pelleted for 7 minutes at 500 g in a refrigerated centrifuge at 4 ° Celsius, and resuspended in trypsin free fortified RPMI 1640 culture media. Viable cells were counted on a hemocytometer slide with trypan blue.
(§2) Ten thousand, 20,000, 40,000 and 80,000 cells of each type were added to 96 well microculture plates (Costar, Cambridge, Mass.) in a total volume of 200 μl of culture media per well. Cells were allowed to adhere for 24 hours prior to addition of the PYY or Analog #1 peptides. Fresh culture media was exchanged prior to addition of peptides. In vitro incubation of pancreatic tumor cells with either PYY or Analog #1 was continued for 6 hours and 36 hours in length. PYY was added to cells at doses of 250 pmol, 25 pmol, and 2.5 pmol per well (N =14). Analog #1 was added to cells cultures at doses of 400 pmol, 40 pmol, and 4 pmol per well. Control wells received 2 μl of 0.9% saline to mimic the volume and physical disturbance upon adhered tumor cells. Each 96 well plate contained 18 control wells to allow for comparison within each plate during experimentation. Ninety-six (96) well plates were repeated 6 times with varying concentrations of PYY and Analog #1 in both the PANC-1 and MiaPaCa-2 cells.
(§3) At the end of the incubation period, 3-(4,5-dimethylthiazolyl-2-yl)-2,5-diphenyltetrazolium Bromide, MTr tetrazolium bromide (Sigma, St. Louis, Mo.) was added to fresh culture media at 0.5 mg/ml. Culture media was exchanged and tumor cells were incubated for 4 hours with MTT tetrazolium bromide at 37° Celsius. At the end of incubation, culture media was aspirated. Formazon crystal precipitates were dissolved in 200 μl of dimethyl sulfoxide (Sigma, St. Louis, Mo.). Quantitation of solubilized formazon was performed by obtaining absorption readings at […] wavelength on an ELISA reader (Molecular Devices, Menlo Park, Calif.). The MTT assay measures mitochondrial NADH dependent dehydrogenase activity, and it has been among the most sensitive and reliable method to quantitative in vitro chemotherapy responses of tumor cells. (Alley, M. C., Scudiero, D. A., Monk, A., Hursey, M. L., Dzerwinski, M. J., Fine, D. L., Abbott, B. J., Mayo, J. G., Shoemaker, R. H. and Boyd, M. R., Feasibility of drug screening with panels of human tumor cell lines using a microculture tetrazolium assay Cancer Res., 48:589-601, 1988; Carmichael, J., DeGraff, W. G., Gazdar, A. F., Minna, J. D. and Mitchell, J. B., Evaluation of a tetrazolium-based semiautomated colorimetric assay: Assessment of chemosensitivity testing. Cancer Res., 47:936-942, 1987; McHale, A. P., McHale, L., Use of a tetrazolium based colorimetric assay in assessing photoradiation therapy in vitro. Cancer Lett., 41:315-321, 1988; and Saxton, R. E., Huang, M. Z., Plante D., Fetterman, H. F., Lufkin, R. B., Soudant, J., Castro, D. J., Laser and daunomycin chemophototherapy of human carcinoma cells. J. Clin. Laser Med. and Surg., 10(5):331-336, 1992.)
(§4) Analysis of absorption readings at 550 nm were analyzed by grouping wells of the same test conditions and verifying differences occurring between control and the various peptide concentration treatments by one-way ANOVA. Once statistical significance was achieved, P <0.05, each test group was compared to its paired control group by Student's T-test within each 96 well plate. […]

[3] = tested on: PANC-1; assay: as above; type: cell-based, human; conditions: 36 hours, vs saline control
Experimental: as §1, §2, §3, §4

PYY: 36 amino acid residue peptide amide isolated originally from porcine intestine; the species of the PYY tested is not stated [Peptide YY]
Tumor mass decreased [1]: 27%
Percent Reduction in Tumor Growth(%) Compared to Control ([2]; 2.5 pmol per well): 0.5%
Percent Reduction in Tumor Growth(%) Compared to Control ([2]; 25 pmol per well): 12.8%
Percent Reduction in Tumor Growth(%) Compared to Control ([2]; 250 pmol per well): 15.4%
Percent Reduction in Tumor Growth(%) Compared to Control ([3]; 2.5 pmol per well): 9.8%
Percent Reduction in Tumor Growth(%) Compared to Control ([3]; 25 pmol per well): 14.7%
Percent Reduction in Tumor Growth(%) Compared to Control ([3]; 250 pmol per well): 25.7%
